Legend:
[1] = Electrochemistry: cyclic voltammetry of the Mn(III)/Mn(II) redox couple; type: physicochemical
Procedure: Electrochemistry. Measurements were performed on a CH Instruments Model 600 Voltammetric Analyzer (Spasojevic and Batinic-Haberle, Inorg. Chim. Acta. 317:230-242 (2001), Batinic-Haberle et al, J. Biol. Chem. 273:24521-24528 (1998), Batinic-Haberle et al, Inorg. Chem. 38:4011-4022 (1999)). A three-electrode system in a small volume cell (0.5 mL to 3 mL), with a 3 mm-diameter glassy carbon button working electrode (Bioanalytical Systems), plus the Ag/AgCl reference and Pt auxiliary electrodes was used. Argon-purged solutions contained 0.05 M phosphate buffer, pH 7.8, 0.1 M NaCl, and 0.5 mM metalloporphyrin. The scan rates were 0.01-0.5 V/s, typically 0.1 V/s. The potentials were standardized against the potassium ferrocyanide/ferricyanide (Kolthof and Tomsicek, J. Phys. Chem. 39:945 (1935)) and/or against MnTE-2-PyP^5+ (Spasojevic and Batinic-Haberle, Inorg. Chim. Acta. 317:230-242 (2001), Batinic-Haberle et al, J. Biol. Chem. 273:24521-24528 (1998), Batinic-Haberle et al, Inorg. Chem. 38:4011-4022 (1999)).
Electrochemistry. All cyclic voltammograms, ascribed to the Mn(III)/Mn(II) redox couple, are reversible. The E1/2 of di-ortho ethylimidazolylporphyrin, MnTDE-2-ImP^5+ is 118 mV more positive than of ortho ethylpyridylporphyrin, MnTE-2-PyP^5+ (+228 mV vs NHE), as a consequence of charge delocalization. A similar difference of 114 mV was seen between their methoxyethyl analogues. Mn porphyrins bearing N-pyridyl substituents of the same length, MnTnBu-PyP^5+ and MnTMOE-2-PyP^5+, have nearly identical E1/2 of +254 and +251 mV vs NHE, which is 26 and 23 mV higher than that of MnTE-PyP^5+.

[2] = Oxidative degradation in the presence of ascorbic acid under aerobic conditions; type: physicochemical; settings: pH 7.8 (0.05 M tris buffer)
Procedure: Under these conditions porphyrins underwent oxidative degradation. As previously observed (Batinic-Haberle et al, J. Chem. Soc., Dalton Trans., pgs. 2689-2696 (2002)), those porphyrins that are of more positive E1/2 are stabilized in +2 oxidation state and are less prone to oxidative damage. Accordingly, 27% and 24% of MnTE-2-PyP^5+ and MnTMOE-2-PyP^5+ undergo degradation within 2 hours, but only 2% of MnTM,MOE-2-ImP^5+ and MnTDMOE-2-ImP^5+ and 3% of MnTDE-2-ImP^5+.

[3] = Thin-layer chromatography on silica gel (retention factor Rf, lipophilicity); type: physicochemical; settings: silica gel TLC, KNO3-saturated H2O/H2O/acetonitrile = 1/1/8
Procedure: Uv/vis spectra of porphyrin ligands and their Mn complexes were taken on a Shimadzu UV-2501-PC spectrophotometer at 25° C. Thin-layer chromatography of ligands and Mn complexes was done using silica gel plates with KNO3satH2O/H2O/acetonitrile=1/1/8.
Thin-layer chromatography. All new methoxyporphyrins are more lipophilic than MnTE-2-PyP^5+ and MnTDE-2-ImP^5+.

[4] = system: SOD-deficient JI132 E. coli; assay: Aerobic growth of SOD-deficient E. coli; type: cell-based
Procedure: Aerobic growth of E. coli. Bacterial strains of E. coli used were wild type AB1157 (F-thr-1 leu-1 proA2 his-4 argE3 thr-1 lacY1 galK2 rpsL supE44 ara-14 xyl-15 mtl-1 tsx-33) and SOD-deficient JI132 (same as AB1157 plus (sodA::mudPR13)25 (sodB-kan)1-Δ2. Culture media were prepared as follows. M9 medium: 6 g/L Na2HPO4, 3 g/L KH2PO4, 0.5 g/L NaCl, 1 g/L NH4Cl, 2 mM MgSO4, 0.1 mM CaCl2, adjusted to pH 7.4 with NaOH, and supplemented with 0.2% glucose, 3 mg/L each of D-panthotenic acid and thiamine. M9CA medium contained M9 medium plus 0.2% casamino acids. 5-amino acid (5AA) minimal medium contained M9 medium plus 0.5 mM each of threonine, leucine, histidine, proline and arginine (Faulkner et al, J. Biocl. Chem. 269:23471 (1994)).
AB 1157 and 31132 were precultured overnight aerobically in M9CA medium at 37° C. and were then diluted to 3×10^7 cells/mL into 5 mL M9CA medium. JI132 was precultured in the presence of 20 μg/mL chloramphenicol and 500 μg/mL kanamycin. When the cells are transferred from M9CA medium to 5AA minimal medium cultures were first centrifuged and washed twice with the 5AA medium before final dilution in it. The centrifugation was conducted at room temperature to avoid temperature shocks. Cultures without and with Mn porphyrins (0.1 to 30 μM) were grown aerobically in 5 mL volume in test tubes in a thermostated orbital shaker (45° angle, 200 rpm) at 37° C.). Rates of growth were followed turbidimetrically at 700 nm to minimize interference from the absorbance of test compounds.

[5] = stroke model; cited from earlier work
[6] = given intravenously; cited from earlier work
[7] = Catalysis of O2.^− dismutation by pulse radiolysis; type: biochemical; settings: pulse radiolysis, pH 7.8, (22 ± 1) °C; kcat ±30%
Procedure: Catalysis of O2.^− dismutation. The catalytic rate constants for the O2.^− dismutation were determined by pulse radiolysis in 0.05 M phosphate buffer (pH 7.8) at (22±1)° C. as previously described (Batinic-Haberle et al, Inorg. Chem. 40:726 (2001)). In the present study 10 mM formate was used as a scavenger for H. atoms and .OH radicals, which leads first to production of CO2.^− radicals and then to O2.^− radicals. This system is known to lead to conversion of all primary radicals of water radiolysis into O2.^−.
Catalysis of O2.^− dismutation. Pulse radiolysis was used to assess the SOD-like activities of the Mn porphyrins studied. The initial concentration of O2.^− produced by the pulse was about 27 μM, and the concentration of the Mn porphyrin was between 0.5 and 5 μM. The dismutation of O2.^− was followed at 280 nm. The catalytic rate constant was determined from the linear dependence of kobs upon the concentration of the catalyst (Batinic-Haberle et al, Inorg. Chem. 40:726 (2001)). All the new compounds have high O2.^− dismuting ability. The magnitude of the catalysis is due to the interplay of the electron-withdrawing effects of quaternized ortho pyridyl or di-ortho imidazolyl groups, favorable electrostatics, and the solvation of the metal site.

CCn1cc[n+](CC)c1-c1c2nc(c(-c3n(CC)cc[n+]3CC)c3ccc([n-]3)c(-c3n(CC)cc[n+]3CC)c3nc(c(-c4n(CC)cc[n+]4CC)c4ccc1[n-]4)C=C3)C=C2.[Mn+3] [MnTDE-2-ImP^5+, Mn(III) 5,10,15,20-tetrakis[N,N′-diethylimidazolium-2-yl]porphyrin]
E1/2 difference of imidazolyl porphyrin vs analogous pyridyl porphyrin [1]: more than 100 mV
Metal-centered redox potential E1/2 ([1]; Mn(III)/Mn(II), 0.1 M NaCl, 0.05 M phosphate buffer, pH 7.8, ±3 mV): +346 mV vs NHE
E1/2 more positive / higher than that of MnTE-2-PyP^5+ ([1]; difference vs MnTE-2-PyP^5+ (+228 mV vs NHE)): 118 mV
degradation within 2 hours [2]: 3%
Rf (compound path/solvent path), metal-free porphyrin (in parenthesis) ([3]; metal-free ligand of the named Mn porphyrin): 0.23
Rf (compound path/solvent path), Mn complex [3]: 0.17
protection of SOD-deficient E. coli ([4]; M9CA medium, 1 μM): low protection
protection of SOD-deficient E. coli ([4]; M9CA medium, 3 μM): ineffective
protection of SOD-deficient E. coli ([4]; M9CA medium, 30 μM): either much higher or near full protection
facilitation of aerobic growth of SOD-deficient E. coli, dependence on concentration ([4]; M9CA medium, 1-30 μM): concentration-dependent manner
protection of E. coli from oxidative stress ([4]; ≦3 μM levels (FIG. 10: 5AA minimal medium)): the least effective
neurotoxicity lower than the pyridyl compound (MnTE-2-PyP^5+) [5]: 16 fold
passing the spinal cord blood barrier compared to MnTE-2-PyP^5+ [6]: less effective
protectiveness in spinal cord injury compared to MnTE-2-PyP^5+ [6]: lacks protectiveness
log kcat for O2^− dismutation [7]: 7.83
